Values joined by “and” are separate entries in the source; they are usually repeats but may differ in a detail not shown here. Identical values can stand only once.
How the values were obtained:
[1] = biological target: T1, ICE (interleukin-1β converting enzyme, Caspase-1) (Homo sapiens, UniProt P29466); experiment: ICE Colorimetric Dose-Response (IC50) Assay; type: biochemical; conditions: ICE approx. 24 nM, 60 min preincubation, 50 μM Ac-Tyr-Val-Ala-Asp-pNA, 25° C.
T1 sequence (P29466 120-297 limits assumed): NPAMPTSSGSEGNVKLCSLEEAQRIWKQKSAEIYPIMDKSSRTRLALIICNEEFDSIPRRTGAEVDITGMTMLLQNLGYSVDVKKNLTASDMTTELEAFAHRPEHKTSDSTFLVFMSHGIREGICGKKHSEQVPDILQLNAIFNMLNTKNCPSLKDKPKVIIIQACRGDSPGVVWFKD
T1 sequence (P29466 317-404 limits assumed): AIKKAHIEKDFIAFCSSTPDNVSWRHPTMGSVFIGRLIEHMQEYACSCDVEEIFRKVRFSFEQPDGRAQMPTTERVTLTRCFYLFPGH
Procedure: ICE Colorimetric Dose-Response (IC50) Assay
(§1) Diluted inhibitor stocks are prepared by two-fold serial dilution from a primary stock whose concentration is selected (based on screening results or on prior attempts at IC50 evaluation) to achieve approximately 95% inhibition in the most concentrated well. Aliquots of each dilution are transferred to a microtitre plate in triplicate.
(§2) ICE enzyme is diluted to approximately 24 nM in HGE buffer (100 mM HEPES pH 7.5, 0.5 mM EDTA, 20% glycerol, 0.1% Bovine Serum Albumin (BSA)), and activated by adding dithiothreitol (DTT) to a final concentration of 5 mM. The activated enzyme is then aliquoted into wells containing inhibitor or vehicle, and the plate is preincubated for 60 minutes at ambient temperature. Substrate (Ac-Tyr-Val-Ala-Asp-pNA) is added to each well to a final concentration of 50 μM, and plates are placed in the microtitre plate-reader thermostated to 25° C. Beginning 5 minutes after addition of substrate, absorbance (405 nm) of wells is monitored for 1 hour, and activity is calculated as the mean rate of change in absorbance during this interval.

Ich-2 (Caspase-4) = biological target: T2, Ich-2 (Caspase-4) (Homo sapiens, UniProt P49662); experiment: Ich-2 (Caspase-4) Colorimetric Dose-Response (IC50) Assay; type: biochemical; conditions: enzyme 64 nM, substrate Ac-Leu-Glu-Val-Asp-pNA
T2 sequence (P49662 81-270 limits assumed): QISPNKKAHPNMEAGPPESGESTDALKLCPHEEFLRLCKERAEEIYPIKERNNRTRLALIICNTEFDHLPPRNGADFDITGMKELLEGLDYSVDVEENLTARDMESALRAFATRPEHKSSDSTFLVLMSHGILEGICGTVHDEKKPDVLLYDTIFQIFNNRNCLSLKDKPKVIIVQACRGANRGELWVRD
T2 sequence (P49662 290-377 limits assumed): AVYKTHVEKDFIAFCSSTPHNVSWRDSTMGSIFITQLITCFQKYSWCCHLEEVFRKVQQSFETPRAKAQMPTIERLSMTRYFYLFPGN
Procedure: as §1, §2
Ich-2 (Caspase-4) Colorimetric Dose-Response (IC50) Assay
Inhibition of Ich-2 enzyme is assayed as described above for ICE, except that enzyme is used at 64 nM, and 60 µM of the Ich-2-specific substrate Ac-Leu-Glu-Val-Asp-pNA is used instead of the ICE substrate Ac-Tyr-Val-Ala-Asp-pNA.

[2] = biological target: T1, ICE (interleukin-1β converting enzyme, Caspase-1); experiment: ICE Ki fluorescence assay (Ac-Tyr-Val-Ala-Asp-AMC hydrolysis); type: biochemical; conditions: ICE 0.24 nM, 15 μM Ac-Tyr-Val-Ala-Asp-AMC, reversible competitive model
Procedure: Substrate hydrolysis is monitored for 300 seconds by observing the fluorescence of released AMC using excitation at 380 nm and emission at 460 nm. Mean rates of substrate hydrolysis are evaluated by linear-regression analysis of the fluorescence vs time traces. To evaluate Ki, plots of percent inhibition vs inhibitor concentration are fit by non-linear regression to a reversible, competitive model: [formula]
Where the competition factor (1+[S]/KM)=2.

SMILES | melting point [°C] | IC50 [1] [µM] | IC50 (Ich-2 (Caspase-4)) [µM] | Ki [2]
O=C(O)CC(NC(=O)OCc1ccccc1)C(=O)CNS(=O)(=O)CCCc1ccccc1 (stereo not shown) [Example 2b, 3-Benzloxycarbonylamino-4-oxo-5-(3-phenylpropane-1-sulfonylamino)-pentanoic acid] | 96 to 104 | 245 | 8590 | 34.5 µM and 32 µM
CC(C)C(NC(=O)C(CCC(=O)O)NC(=O)OCc1ccccc1)C(=O)NC(CC(=O)O)C(=O)CNS(=O)(=O)CC12CCC(CC1=O)C2(C)C (stereo not shown) [Example 4f, 3-[2-(2-Benzyloxycarbonylamino-4-carboxy-butyrylamino)-3-methyl-butyrylamino]-5-(7,7-dimethyl-2-oxo-bicyclo[2.2.1]hept-1-ylmethanesulfonylamino)-4-oxo-pentanoic acid] | – | 0.002 | 3.2 | 0.00061 µM
CC(NC(=O)C(NC(=O)OCc1ccccc1)C(C)C)C(=O)NC(CC(=O)O)C(=O)CNS(=O)(=O)CCc1ccccc1 (stereo not shown) [Example 3a, 3-[2-(2-Benzyloxycarbonylamino-3-methyl-butyrylamino)-propionylamino]-4-oxo-5-(2-phenyl-ethanesulfonylamino)-pentanoic acid] | – | 0.072 | 18 | 0.007 µM

Source: patent US20020156094A1, “Sulfonamide interleukin-1beta converting enzyme inhibitors” (Warner-Lambert Company, priority 1996, published 2002)
